Reference: patent US5462926A (Biomeasure, Inc., priority 1993, dated 1995)
Where two headings read alike, the source gives them in different places. Where a SMILES comes first, the peptide text is derived from it. Bridges are numbered along the chain shown (N, C = ends). [ ]: non-standard residue; d: D form. 2Nal = N[C@@H](Cc1ccc2ccccc2c1)C(=O)O; d2Nal = N[C@H](Cc1ccc2ccccc2c1)C(=O)O

Assays:
[1] = target: T1, GRP receptors on rat pancreatic acini (Rattus norvegicus, UniProt P52500); assay: Binding of 125I-[Tyr4]bombesin to pancreatic acini; details: read-out: Ki 125I-[Tyr4]Bn Binding, GRP Receptor, Rat Pancreatic Acini; Ki by Cheng method
T1 construct: from tissue; host or cells: dispersed pancreatic acini
Text: Nonsaturable binding was<10% of total binding in all experiments.

rat NMB receptor = target: T2, rat NMB receptor (Rattus norvegicus, UniProt P24053); assay: Binding of 125I-[D-Tyr0]NMB to NMB-R transfected BALB 3T3 cells; details: for fold decrease in NMB receptor affinity compared with cyclo SS-octa (#1): structure-function comparison from Table 1
T2 construct: a full length NMB-preferring bombesin receptor clone generated from rat esophagus; expressed in transfected cells
T2 sequence (P24053 1-390): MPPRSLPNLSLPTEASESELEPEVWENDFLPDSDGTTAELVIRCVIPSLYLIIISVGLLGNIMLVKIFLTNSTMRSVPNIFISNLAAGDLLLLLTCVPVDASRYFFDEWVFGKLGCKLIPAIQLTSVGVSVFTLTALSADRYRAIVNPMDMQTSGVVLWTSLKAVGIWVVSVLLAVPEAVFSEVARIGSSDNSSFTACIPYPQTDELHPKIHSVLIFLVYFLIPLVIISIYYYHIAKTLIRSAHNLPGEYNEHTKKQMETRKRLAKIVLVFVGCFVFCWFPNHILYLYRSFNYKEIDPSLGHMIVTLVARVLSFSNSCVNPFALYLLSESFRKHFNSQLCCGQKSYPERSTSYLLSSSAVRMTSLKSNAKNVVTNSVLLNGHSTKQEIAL

mu opioid receptors = target: T3, mu opioid receptors (Rattus norvegicus, UniProt P33535); assay: Mu opioid membrane assay, [3H]DAGO, rat forebrain membranes; format: binding
T3 construct: rat forebrain (TRH, mu and delta opioid membrane assays); from tissue; host or cells: rat forebrain membranes

GRP receptor [2] = target: T4, GRP receptor (Rattus norvegicus, UniProt P52500); assay: GRP membrane receptor assay, 125I-[Tyr4]Bn, AR 42J cell membranes; format: binding; design: endogenous in cells; host or cells: rat AR 42J pancreatic acinar tumor cell membranes; details: read-out: affinity, 125I-[Tyr4]Bn, AR 42J Cell Membranes (GRP receptors); Cheng method; unit inferred
GRP receptor [3] = target: T4, GRP receptor; assay: Amylase release from rat pancreatic acini (alone or Bn-stimulated); format: cell-based; design: from tissue; host or cells: dispersed pancreatic acini; details: for Amylase Release, analog Alone (10 μM): analog 10 μM alone, control 4 ± 1; for Amylase Release, analog Plus Bn (0.3 nM): analog 10 μM plus Bn 0.3 nM, Bn without analog 15 ± 1; for IC50: read-out: IC50 Amylase Release, GRP Receptor, Rat Pancreatic Acini
In short: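 Rat pancreatic acini incubated 30 min at 37° C without additives or with somatostatin octapeptide analog, Bn, NMB or combinations. Amylase release expressed as percent of total cellular amylase released during incubation; for inhibition, somatostatin analog (10 μM) tested on 0.3 nM Bn-stimulated release.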

NMB receptor [4] = target: T5, NMB receptor (Rattus norvegicus, UniProt P24053); assay: NMB membrane receptor assay, 125I-NMB, rat olfactory bulb membranes; format: binding; design: Membranes were prepared from rat olfactory bulb (NMB membrane receptor assay); from tissue; host or cells: rat olfactory bulb membranes; details: for Ki: Cheng method, unit inferred, read-out: affinity, 125I-NMB, Rat Olfactory bulb membranes (neuromedin B receptors)
T5 sequence (P24053 1-390): T2 sequence (P24053 1-390)

NMB receptor [5] = target: T5, NMB receptor; assay: [3H]inositol phosphates in NMB-R transfected cells (alone or NMB-stimulated); format: cell-based; design: a full length NMB-preferring bombesin receptor clone generated from rat esophagus; expressed in transfected cells; details: NMB-R transfected cells; for IC50 / effect at 10 μM on NMB-stimulated increase in [3H]IP: 3 nM NMB; for [3H]IP, analog Alone (10 μM): analog 10 μM alone, control 13 ± 3; for [3H]IP, analog Plus NMB (3 nM): analog 10 μM plus NMB 3 nM, NMB without analog 186 ± 58
In short: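 BALB 3T3 cells stably expressing rat NMB receptor, labelled 48 h at 37 °C with 100 μCi/ml myo-[3H]inositol, preincubated 15 min in buffer with 10 mM LiCl, then exposed 60 min at 37 °C to agonists or to 3 nM NMB plus antagonists. Total [3H]inositol phosphates isolated by anion-exchange chromatography.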

somatostatin receptors = target: T6, somatostatin receptors (Rattus norvegicus, UniProt P30680); assay: Somatostatin membrane receptor assay, 125I-[Tyr11]SS-14, AR 42J cell membranes; format: binding; details: Cheng method; table prints no unit (b360 gives nM for a Table 4 value); read-out: affinity, 125I-[Tyr11]SS-14, AR 42J Cell Membranes (somatostatin receptors)
T6 construct: endogenous in cells; host or cells: rat AR 42J pancreatic acinar tumor cell membranes

[6] = NMB-R transfected BALB 3T3 cells, Ki by Cheng method, read-out: Ki 125I-NMB Binding, NMB Receptor, Transfected Cells
[7] = Cheng method, unit inferred, read-out: affinity, [3H]DAGO, Rat Forebrain membranes (mu opioid receptors)
[8] = read-out: IC50 NMB-stimulated [3H]IP, NMB Receptor, Transfected Cells

T3 sequence (P33535 whole entry): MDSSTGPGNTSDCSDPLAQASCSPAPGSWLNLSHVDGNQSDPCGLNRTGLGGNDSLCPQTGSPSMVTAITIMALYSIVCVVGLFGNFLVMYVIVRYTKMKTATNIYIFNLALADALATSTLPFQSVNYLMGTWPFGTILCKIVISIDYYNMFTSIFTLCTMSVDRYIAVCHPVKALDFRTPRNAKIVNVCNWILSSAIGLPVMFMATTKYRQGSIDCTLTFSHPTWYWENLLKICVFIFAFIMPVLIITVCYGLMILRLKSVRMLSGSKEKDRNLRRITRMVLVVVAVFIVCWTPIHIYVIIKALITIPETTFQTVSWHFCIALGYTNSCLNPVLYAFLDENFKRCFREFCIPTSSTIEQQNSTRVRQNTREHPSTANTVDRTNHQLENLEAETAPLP
T6 sequence (P30680 whole entry): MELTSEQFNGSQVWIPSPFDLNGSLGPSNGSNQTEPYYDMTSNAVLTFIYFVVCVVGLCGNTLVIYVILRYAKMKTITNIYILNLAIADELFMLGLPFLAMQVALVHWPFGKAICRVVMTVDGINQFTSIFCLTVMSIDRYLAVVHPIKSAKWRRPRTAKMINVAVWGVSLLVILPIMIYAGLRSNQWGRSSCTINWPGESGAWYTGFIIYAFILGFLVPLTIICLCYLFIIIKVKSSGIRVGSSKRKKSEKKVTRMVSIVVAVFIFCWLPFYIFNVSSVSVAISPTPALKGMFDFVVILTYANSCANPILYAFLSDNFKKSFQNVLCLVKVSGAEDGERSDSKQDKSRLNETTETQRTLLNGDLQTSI
T4 sequence (P52500 whole entry): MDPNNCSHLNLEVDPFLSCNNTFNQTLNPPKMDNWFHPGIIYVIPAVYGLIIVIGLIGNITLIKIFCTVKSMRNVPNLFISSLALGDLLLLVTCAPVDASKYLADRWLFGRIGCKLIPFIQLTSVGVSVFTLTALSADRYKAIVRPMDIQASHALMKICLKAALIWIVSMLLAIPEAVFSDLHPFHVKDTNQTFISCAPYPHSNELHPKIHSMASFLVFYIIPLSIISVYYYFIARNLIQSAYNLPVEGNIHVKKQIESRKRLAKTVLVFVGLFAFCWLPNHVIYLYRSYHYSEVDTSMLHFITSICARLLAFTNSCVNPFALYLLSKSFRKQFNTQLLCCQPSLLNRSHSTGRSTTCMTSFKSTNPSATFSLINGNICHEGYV
T1 sequence (P52500 whole entry): as above

SMILES | Ki [1] | Ki (rat NMB receptor; [6]) | fold decrease in NMB receptor affinity compared with cyclo SS-octa (#1) (rat NMB receptor) | Ki (mu opioid receptors; [7]) | Ki (GRP receptor [2]) | Amylase Release, analog Alone (10 μM) (GRP receptor [3]) | Amylase Release, analog Plus Bn (0.3 nM) (GRP receptor [3]) | IC50 (GRP receptor [3]) | Ki (NMB receptor [4]) | IC50 (NMB receptor [5]; [8]) | [3H]IP, analog Alone (10 μM) (NMB receptor [5]) | [3H]IP, analog Plus NMB (3 nM) (NMB receptor [5]) | Ki (somatostatin receptors) | fold by which cyclo SS-octa is more potent than the analog, 125I-NMB binding (rat NMB receptor; NMB-R transfected cells) | effect at 10 μM on NMB-stimulated increase in [3H]IP (NMB receptor [5]) | further results
C[C@@H](O)[C@H](NC(=O)[C@@H]1CSSC[C@H](NC(=O)[C@H](N)Cc2ccc3ccccc3c2)C(=O)N[C@@H](Cc2ccc(O)cc2)C(=O)N[C@H](Cc2c[nH]c3ccccc23)C(=O)N[C@@H](CCCCN)C(=O)N[C@@H](Cc2ccc3ccccc3c2)C(=O)N1)C(N)=O [Analog #2, H2 -D-Nal-Cys-Tyr-D-Trp-Lys-Nal-Cys-Thr-NH2] | 16300 ± 3820 nM | 772 ± 94 nM | 4 fold | 1.9 ± 0.7 nM | 950 ± 70 nM | 5 ± 1 % total | 13 ± 1 % total | > 10000 nM | 85 ± 20 nM | 6.67 ± 0.435 µM | 11 ± 2 dym × 10^3 | 39 ± 7 dym × 10^3 | 0.5 ± 0.1 nM |  |  | 
CC(C)[C@@H]1NC(=O)[C@H](Cc2c[nH]cn2)NC(=O)[C@@H](Cc2c[nH]c3ccccc23)NC(=O)[C@H](Cc2ccc(O)cc2)NC(=O)[C@@H](NC(=O)[C@H](N)Cc2ccc3ccccc3c2)CSSC[C@@H](C(=O)N[C@@H](Cc2ccc3ccccc3c2)C(N)=O)NC1=O [Analog #14] (H-[d2Nal]CY[dW]HVC[2Nal]-NH2; disulfide 2-7; N-terminus assumed) | > 10000 nM | 9860 ± 1290 nM | 50 fold | 500 nM | 3100 ± 700 nM | 2 ± 1 % total | 13 ± 1 % total | > 10000 nM | 470 ± 240 nM | 11.9 ± 1.83 µM | 8 ± 1 dym × 10^3 | 97 ± 7 dym × 10^3 | 1870 ± 30 nM | 45 fold |  | fold higher affinity for NMB receptors than somatostatin receptors (NMB receptor [4]; membranes, Table 4): 3 fold
CC(C)[C@@H]1NC(=O)[C@H](CCCCN)NC(=O)[C@@H](Cc2c[nH]c3ccccc23)NC(=O)[C@H](Cc2ccc(O)cc2)NC(=O)[C@@H](NC(=O)[C@H](N)Cc2ccccc2)CSSC[C@@H](C(=O)N[C@@H](Cc2ccc3ccccc3c2)C(N)=O)NC1=O [Analog #4, H2 -D-Phe-Cys-Tyr-D-Trp-Lys-Val-Cys-Nal-NH2] (H-[dF]CY[dW]KVC[2Nal]-NH2; disulfide 2-7) | 21900 ± 4260 nM | 818 ± 68 nM | 4 to 7 fold | 650 ± 130 nM | 2000 ± 150 nM | 4 ± 2 % total | 14 ± 1 % total | > 10000 nM | 245 ± 130 nM | 3.76 ± 0.568 µM | 13 ± 1 dym × 10^3 | 33 ± 4 dym × 10^3 | 0.24 ± 0.13 nM |  |  | 
CC(C)[C@@H]1NC(=O)[C@H](CCCCN)NC(=O)[C@@H](Cc2c[nH]c3ccccc23)NC(=O)[C@H](Cc2ccc(O)cc2)NC(=O)[C@@H](NC(=O)[C@H](N)Cc2c[nH]c3ccccc23)CSSC[C@@H](C(=O)N[C@@H](Cc2ccc3ccccc3c2)C(N)=O)NC1=O [Analog #12, H2 -D-Trp-Cys-Tyr-D-Trp-Lys-Val-Cys-Nal-NH2] (H-[dW]CY[dW]KVC[2Nal]-NH2; disulfide 2-7) | > 10000 nM | 1410 ± 127 nM | 4 to 7 fold | > 10000 nM | 2100 ± 150 nM | 3 ± 1 % total | 13 ± 1 % total | > 10000 nM | 1180 ± 520 nM | 4.69 ± 0.927 µM | 9 ± 2 dym × 10^3 | 43 ± 2 dym × 10^3 | 3.1 ± 1.6 nM | 9 fold |  | Ki (rat NMB receptor; NMB-R transfected cells, value or range given for a group, read-out: K1, 125I-NMB binding to NMB-R transfected cells (text)): 1400 to 2300 nM
NCCCC[C@@H]1NC(=O)[C@@H](Cc2c[nH]c3ccccc23)NC(=O)[C@H](Cc2ccc(O)cc2)NC(=O)[C@@H](NC(=O)[C@H](N)Cc2ccc3ccccc3c2)CSSC[C@@H](C(=O)N[C@@H](Cc2ccc3ccccc3c2)C(N)=O)NC(=O)[C@H](Cc2ccccc2)NC1=O [Analog #13, H2 -D-Nal-Cys-Tyr-D-Trp-Lys-Phe-Cys-Nal-NH2] (H-[d2Nal]CY[dW]KFC[2Nal]-NH2; disulfide 2-7) | > 10000 nM | 397 ± 72 nM | 2 to 3 fold | 1640 nM | 2150 ± 200 nM | 3 ± 1 % total | 14 ± 1 % total | > 10000 nM | 270 ± 90 nM | 1.17 ± 0.114 µM | 10 ± 1 dym × 10^3 | 9 ± 4 dym × 10^3 | 194 ± 27 nM | 2 fold | completely inhibited | IC50 (NMB receptor [5]; read-out: IC50 NMB-stimulated [3H]IP, Transfected Cells (values in μM)): 1.2 to 1.8 µM
CC(C)[C@@H]1NC(=O)[C@H](CCCCN)NC(=O)[C@@H](Cc2c[nH]c3ccccc23)NC(=O)[C@H](Cc2ccc(O)cc2)NC(=O)[C@@H](NC(=O)[C@H](N)Cc2ccc3ccccc3c2)CSSC[C@@H](C(=O)N[C@@H](Cc2ccc3ccccc3c2)C(N)=O)NC1=O [Analog #1, H2 -D-Nal-Cys-Tyr-D-Trp-Lys-Val-Cys-Nal-NH2] (H-[d2Nal]CY[dW]KVC[2Nal]-NH2; disulfide 2-7) | 18300 ± 2110 nM | 216 ± 36 nM |  |  | 2870 ± 520 nM | 5 ± 1 % total | 15 ± 2 % total | > 10000 nM | 43 ± 9 nM | 0.895 ± 0.098 µM | 12 ± 2 dym × 10^3 | 8 ± 4 dym × 10^3 | 0.8 ± 0.5 nM |  | completely inhibited | Kd (rat NMB receptor; NMB-R transfected 3T3 cells, read-out: Kd, inhibition of 125I-[D-Tyr0]NMB binding, NMB-R transfected 3T3 cells): 216 nM; concentration causing complete inhibition of 125I-NMB binding (rat NMB receptor; NMB-R transfected cells): 3 µM; concentration causing detectible inhibition of 125I-NMB binding (rat NMB receptor; NMB-R transfected cells): 0.1 µM; type of antagonism (rat NMB receptor; NMB-R transfected cells, 0.5 μM): competitive antagonist; IC50 (rat NMB receptor; NMB-R transfected cells, read-out: half-maximal inhibition of 125I-NMB binding): 216 nM; Ki (mu opioid receptors; rat forebrain membranes, read-out: affinity, inhibition of [3H]DAGO binding to mu opioid receptors): 430 ± 130 nM; effect on Bn-stimulated amylase release (GRP receptor [3]; 0.3 nM Bn): did not inhibit; fold greater affinity for NMB receptors than mu opioid receptors (NMB receptor [4]; membranes, Table 4): 10 fold; concentration causing detectible inhibition of NMB-stimulated [3H]IP (NMB receptor [5]): 0.3 µM; slope of Schild regression (NMB receptor [5]; not significantly different from unity): 1.1(+0.2)
